Reference: US20190225670A1, “COMPOUNDS AND METHODS FOR ACTIVATING TIE2 SIGNALING” (ASCLEPIX THERAPEUTICS, LLC, priority 2016, published 2019)

Assays:
phospho-Tie2 (Y992) = experiment: Immunofluorescence of phospho-Tie2 in MEC monolayers; format: cell-based, human; details: 200 ng/ml Ang2 15 min and AXT107
Description: As such, subsequent experiments evaluate the effects of AXT107 at cell-cell junctions in MEC monolayers using immunofluorescence microscopy rather than at the EC-ECM interface.
(§1) Glass-bottomed, 96-well plates with half well size were coated with 10 μg/ml FN1 for two hours at 37° C. The FN1 solution was then removed by aspiration and the plate seeded with 4×10^3 MECs in EGM-2MV media. After twenty-four hours, the cells were washed once with dPBS containing Ca^2+ and Mg^2+ to remove dead cells and the cells were allowed to grow for an additional twenty-four hours. For three-hour duration treatments (i.e., VE-cadherin), cells were washed twice with dPBS containing Ca^2+ and Mg^2+ and serum starved in EBM-2 for ninety minutes. The media was then removed and the cells were treated for three hours with 100 μl of EBM-2 media containing 200 ng/ml Ang2 or PBS and varying concentrations of AXT107 or DMSO. For fifteen minute-treated samples (i.e., phospho-Tie2), the cells were serum starved in EBM-2 media for 165 minutes, incubated for ninety minutes with varying concentrations of AXT107 or DMSO in EBM-2, and finally stimulated for fifteen minutes with 200 ng/ml Ang2 or PBS supplemented with peptide to retain the same concentrations. These times were chosen so that both treatment procedures would be completed at the same time. […]

α5 integrin subunit = biological target: T1, α5 integrin subunit (Homo sapiens, UniProt P08648); experiment: Triton X-100 fractionation of MEC lysates, α5 integrin; format: cell-based
T1 construct: host or cells: human dermal microvascular endothelial cells (MEC)
T1 sequence (P08648 42-894 limits assumed): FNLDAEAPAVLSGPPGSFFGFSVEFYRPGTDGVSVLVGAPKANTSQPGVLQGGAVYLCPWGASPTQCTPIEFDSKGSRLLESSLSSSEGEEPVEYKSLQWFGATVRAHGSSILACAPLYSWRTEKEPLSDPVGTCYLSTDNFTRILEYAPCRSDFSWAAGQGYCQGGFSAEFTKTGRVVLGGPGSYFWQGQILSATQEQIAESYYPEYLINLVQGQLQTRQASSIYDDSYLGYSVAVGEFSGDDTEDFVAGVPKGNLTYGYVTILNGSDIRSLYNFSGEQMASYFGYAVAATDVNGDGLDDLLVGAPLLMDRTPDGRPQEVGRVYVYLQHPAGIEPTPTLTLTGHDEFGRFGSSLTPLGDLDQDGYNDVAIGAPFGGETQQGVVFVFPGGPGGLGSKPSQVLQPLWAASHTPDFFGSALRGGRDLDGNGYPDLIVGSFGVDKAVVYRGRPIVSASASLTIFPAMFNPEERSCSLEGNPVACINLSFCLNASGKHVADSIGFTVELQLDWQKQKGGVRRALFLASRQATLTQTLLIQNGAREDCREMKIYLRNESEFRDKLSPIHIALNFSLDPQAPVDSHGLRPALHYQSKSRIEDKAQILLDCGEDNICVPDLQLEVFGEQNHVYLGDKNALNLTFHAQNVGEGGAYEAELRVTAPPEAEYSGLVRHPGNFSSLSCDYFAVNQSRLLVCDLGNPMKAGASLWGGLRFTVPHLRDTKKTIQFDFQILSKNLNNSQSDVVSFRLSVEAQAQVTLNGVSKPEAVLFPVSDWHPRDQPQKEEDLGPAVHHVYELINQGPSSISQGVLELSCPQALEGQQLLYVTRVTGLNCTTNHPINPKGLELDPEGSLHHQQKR
T1 sequence (P08648 895-1049 limits assumed): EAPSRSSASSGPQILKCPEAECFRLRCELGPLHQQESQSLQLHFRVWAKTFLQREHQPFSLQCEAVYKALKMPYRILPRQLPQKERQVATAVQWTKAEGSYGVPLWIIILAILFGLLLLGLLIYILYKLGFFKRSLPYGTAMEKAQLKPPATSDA
Description: α5β1-integrin heterodimer and αvβ3-integrin heterodimer are primary targets of AXT107.
The isolation of Triton X-100 soluble and insoluble fractions was performed using modifications to previously-described procedures (see, e.g., Lampugnani et al., J Cell Biol. 1995; 129(1):203-217). FN1-coated six-well plates were seeded with 2.5×10^6 cells and cultured for forty-eight hours, as described above. The cultures were then serum starved for ninety minutes in EBM-2 media, treated with 100 μM AXT107 or DMSO vehicle, and fifteen minutes with 1 mM sodium vanadate. […] The plates were then transferred to ice and washed twice with cold dPBS containing Ca^2+ and Mg^2+ and twice with EBM-2 media. The media was then removed and the cells incubated for thirty minutes on ice, at 4° C. in 200 μl of Triton X-100 extraction buffer (10 mM Tris-HCl, pH 7.5; 150 mM NaCl; 2 mM CaCl2); 1% NP-40; 1% […]; and a protease inhibitor cocktail (Cell Signaling, Cat#: 5871)) with occasional agitation. The extraction buffer was gently collected and centrifuged at 12,000×g for five minutes. The supernatant was then mixed with 125 μl of 3×Blue Loading Dye, boiled, and saved as the Triton X-100 soluble fraction at −20° C. […] Samples were analyzed by western blot as described above. […]

VE-cadherin = VE-cadherin western blot and immunofluorescence in MEC monolayers; format: cell-based, human
Description: The jaggedness of these junctions is related to the structure of actin within the cell.
as §1, with “time. The cells were then washed twice with cold dPBS containing Ca^2+ and Mg^2+ and fixed in 10% neutral buffered formalin for fifteen minutes.” for “time.”

LRRFSTAPFAFIDINDVINF [AXT107]
phospho-Tie2 fluorescence intensity and distribution (phospho-Tie2 (Y992)): increased overall fluorescence intensity and redistributed phospho-Tie2 along cell-cell junctions and into large clusters
α5 integrin subunit location in fractionated lysates (α5 integrin subunit; 100 μM AXT107): relocated to the insoluble fraction
α5 integrin after immunoprecipitation of Tie2 (α5 integrin subunit; Triton X-100 fractionated lysates, with 200 ng/ml Ang2 or no growth factor): observed in the peptide-treated, insoluble fraction
distribution of VE-cadherin at junctions (VE-cadherin; 200 ng/ml Ang2, increasing concentrations of AXT107): became progressively smoother
total level of VE-cadherin (VE-cadherin; three hours of AXT107 and 200 ng/ml Ang2): remained unchanged
